Measurements from US20130018062A1, “Pain therapy with metabolism blocked antifolates” (priority 2011, published 2013).

Legend:
[1] = test system: patients with Rheumatoid Arthritis; settings: compared with methotrexate; cited from earlier work
[2] = test system: Human HCT-8 Colon Xenograft; experiment: Antitumor activity in nude mice bearing human HCT-8 colon xenograft (Example-4); format: in vivo; settings: i.v. push daily × 5 at maximum tolerated dose (M-Trex 4.0, MTX 1.0 mg/kg/day)
Description: There are three general accepted methods for the evaluation of Pain in patients suffering from a number of diseases. They are Visual Analog Scale (VAS); Numeric rating Scale (NRS) and Verbal Categorical Rating Scale […]. Of these three assessment methods VAS is considered to be most reliable in a majority of cases to evaluate and quantify the magnitude of the perception of Pain. Clinical trials conducted by Castaneda and Nair used VAS to assess pain intensity in RA patients receiving 10-DAAM in one trial [G. Alarcon, O. Castaneda, W. J. Koopman, C. L. Krumdieck, and M. G. Nair. U.S. Pat. No. 5,030,634 (1991)] and M-Trex (CH-1504) in another trial conducted separately. Almost all cases of cancer Pain is due to tissue inflammation, tissue compression and tissue damage secondary to rapid proliferation of cells. Therefore any therapeutic intervention that shrinks proliferating tissues can bring about significant reduction in Pain. Shown below is the efficacy of M-Trex in shrinking human colon cancer transplanted and growing in nude mice.

[3] = Toxicity (maximum tolerated dose, weight loss) in nude mice bearing HCT-8 xenograft; format: in vivo; settings: i.v. push daily × 5 in nude mice
[4] = test system: CCRF-CEM (Leukemia); experiment: Growth inhibition of human tumor cells in culture (NCI); format: cell-based; settings: logarithmic value
Description: (§1) The preceding data collected at the National Cancer Institute summarize the ability of M-Trex to inhibit 50% of the growth of selected tumor cells in culture. The values are expressed as Log10 GI50 values all of which are lower than 10^−8M. In the same table a comparison is made of the respective values of TGI (Total Growth Inhibition) for M-Trex and MTX. […] In addition, the Log10 GI50 values of M-Trex was lower than −8.00 for the following cell lines: NSCLC, A549/ATCC and NCI H23; Colon Cancer, HCT 116, HCT 29 and SW 620; CNS Cancer, SF 268; Melanoma M 14 and UACC 62; Ovarian Cancer, OVCAR-8; Renal Cancer, ACHN, CAKI-1, SN 12C, and UO 31; Prostate Cancer, PC 3 and Breast cancer, MDA-MB-435 and MDA-N. The MG_MID value of MTX for all 49 human tumor cell lines evaluated at NCI-DTP program was −7.05. […] The tumors and sarcomas are solid while leukemia and lymphoma are liquid tumors.

[5] = test system: K562 (Leukemia); experiment: as above; format: cell-based; settings: logarithmic value
Description: as §1

[6] = test system: MOLT-4 (Leukemia); experiment: as above; format: cell-based; settings: logarithmic value
Description: as §1

[7] = test system: RPMI 8226 (Leukemia); experiment: as above; format: cell-based; settings: logarithmic value
Description: as §1

[8] = test system: SF 539 (CNS Cancer); experiment: as above; format: cell-based; settings: logarithmic value
Description: as §1

[9] = test system: SR (Leukemia); experiment: as above; format: cell-based; settings: logarithmic value
Description: as §1

[10] = test system: Allergic Rabbits; settings: allergen induced; cited from earlier work
[11] = test system: human tumor cell lines; settings: all 49 human tumor cell lines evaluated at NCI-DTP program; cited from earlier work

Row | SMILES | Pain reduction (in words) [1] | MTGI, Maximum Tumor Growth Inhibition (% of control) ([2]; nude mice, HCT-8 xenograft) [%] | Tumor doubling time, treated/control (%) ([2]; nude mice, HCT-8 xenograft) | TD, Tumor Doubling Time ([2]; control 2.6 ± 0.8 days) [days] | Maximum Tolerated dose [3] | TGI (Total Growth Inhibition) [4] | TGI (Total Growth Inhibition) [5] | TGI (Total Growth Inhibition) [6] | TGI (Total Growth Inhibition) [7] | TGI (Total Growth Inhibition) [8] | TGI (Total Growth Inhibition) [9] | Asthmatic Response Early [10] | Asthmatic Response Late [10] | BHR (Bronchial Hyper-Responsiveness) [10] | MG_MID value [11]
1 | Nc1nc(N)c2nc(CCc3ccc(C(=O)N[C@@H](CCC(=O)O)C(=O)O)cc3)cnc2n1 [10-DAAM, 10-Deazaaminopterin] | very effective in reducing Pain | – | – | – | – | – | – | – | – | – | – | – | – | – | –
2 | CN(Cc1cnc2nc(N)nc(N)c2n1)c1ccc(C(=O)N[C@@H](CCC(=O)O)C(=O)O)cc1 [MTX, methotrexate, reference compound] | – | 30.0 ± 9.0 | 176.92 | 4.6 ± 0.6 | MTX (1.0 mg/kg/day)^33 | −3.77 | −3.30 | −3.55 | −3.66 | −3.66 | −3.50 | 29 | 37 | 32 | −7.05
3 | Cn1c(=O)c2[nH]cnc2n(C)c1=O [Theophylline] | – | – | – | – | – | – | – | – | – | – | – | 45 | 49 | 39 | –
